Assay results as given in ChEMBL document CHEMBL5096145, “Evaluation of imidazo[2,1-b]thiazole-based anticancer agents in one decade (2011-2020): Current status and future prospects” (Bioorg Med Chem, 2021).

Key:
MDA-MB-231 [1] = test: Antiproliferative activity human MDA-MB-231 cells; type: functional, cell-based
MCF7 [2] = test: Antiproliferative activity human MCF7 cells; type: functional, cell-based
A549 [3] = test: Antiproliferative activity human A549 cells; type: functional, cell-based
HeLa [4] = test: Cytotoxicity against human HeLa cells expressing EGFR assessed as reduction in cell viability incubated for 24 hrs by MTT assay; type: functional, cell-based
HepG2 [5] = test: Cytotoxicity against human HepG2 cells expressing EGFR assessed as reduction in cell viability incubated for 24 hrs by MTT assay; type: functional, cell-based; settings: HepG2, 24 h
L02 = test: Cytotoxicity against human HL7702 cells expressing EGFR assessed as reduction in cell viability incubated for 24 hrs by MTT assay; type: functional, cell-based; settings: L02, 24 h
HUVEC = test: Cytotoxicity against HUVEC expressing EGFR assessed as reduction in cell viability incubated for 24 hrs by MTT assay; type: functional, cell-based; settings: Homo sapiens
A549 [6] = test: Anticancer activity against human A549 cells incubated for 24 hrs by MTT assay; type: functional, cell-based; settings: A549, 24 h
Tubulin = test: Inhibition of tubulin polymerization (unknown origin) by fluorescence based assay; type: protein-complex assay, Homo sapiens
A549 [7] = test: Induction of apoptosis in human A549 cells assessed as increase in caspase-3 level at 0.5 uM measured after 48 hrs by ELISA method relative to control; type: functional
A549 [8] = test: Induction of apoptosis in human A549 cells assessed as increase in caspase-3 level at 1 uM measured after 48 hrs by ELISA method relative to control (RVB = 9.1 %); type: functional
SR [9] = test: Anticancer activity against human SR cells incubated for 48 hrs by SRB staining assay relative to control; type: functional
HL-60(TB) = test: Anticancer activity against human HL-60(TB) cells incubated for 48 hrs by SRB staining assay relative to control; type: functional
DU-145 = test: Anticancer activity against human DU-145 cells incubated for 48 hrs by SRB staining assay relative to control; type: functional
OVCAR-3 = test: Anticancer activity against human OVCAR-3 cells incubated for 48 hrs by SRB staining assay; type: functional
CCRF-CEM = test: Anticancer activity against human CCRF-CEM cells incubated for 48 hrs by SRB staining assay; type: functional
NCI-H322M = test: Anticancer activity against human NCI-H322M cells incubated for 48 hrs by SRB staining assay; type: functional
NCI-H460 = test: Anticancer activity against human NCI-H460 cells incubated for 48 hrs by SRB staining assay; type: functional
HCT-15 = test: Anticancer activity against human HCT-15 cells incubated for 48 hrs by SRB staining assay; type: functional
SF-268 = test: Anticancer activity against human SF-268 cells incubated for 48 hrs by SRB staining assay; type: functional
CAKI-1 = test: Anticancer activity against human CAKI-1 cells incubated for 48 hrs by SRB staining assay; type: functional
UO-31 = test: Anticancer activity against human UO-31 cells incubated for 48 hrs by SRB staining assay; type: functional
MDA-MB-231 [10] = test: Anticancer activity against human MDA-MB-231 cells incubated for 48 hrs by SRB staining assay; type: functional
SR [11] = test: Anticancer activity against human SR cells incubated for 48 hrs by SRB staining assay; type: functional
HCT-116 = test: Anticancer activity against human HCT-116 cells measured after 48 hrs by MTT assay; type: functional, cell-based; settings: HCT-116, 48 h
MIA PaCa-2 = test: Antiproliferative activity against human MIAPaCa-2 cells measured after 24 to 48 hrs by SRB staining based assay; type: functional, cell-based
MCF7 [12] = test: Antiproliferative activity against human MCF7 cells measured after 48 hrs by MTT assay; type: functional, cell-based; settings: MCF7, 48 h
HepG2 [13] = test: Antiproliferative activity against human HepG2 cells measured after 48 hrs by MTT assay; type: functional, cell-based; settings: HepG2, 48 h
HeLa [14] = test: Antiproliferative activity against human HeLa cells measured after 48 hrs by MTT assay; type: functional, cell-based
MDA-MB-231 [15] = test: Antiproliferative activity against human MDA-MB-231 cells measured after 48 hrs by MTT assay; type: functional, cell-based; settings: MDA-MB-231, 48 h
MDA-MB-231 [16] = test: Induction of cell cycle arrest in human MDA-MB-231 cells assessed as accumulation of cells at G0/G1 phase measured at 1 uM incubated for 24 hrs by flow cytometric analysis relative to control; type: functional

## O=C(/C=C\Nc1cnc2ccccc2c1)c1c(-c2ccccc2)nc2sccn12
MDA-MB-231 [1]
  IC50: 4600 nM
MCF7 [2]
  IC50: 4600 nM
A549 [3]
  IC50: 400 nM

## O=C(Cc1csc2nc3ccccc3n12)Nc1ccccc1O
HeLa [4]
  IC50: 420 nM
HepG2 [5]
  IC50: > 100000 nM
L02
  IC50: > 100000 nM
HUVEC
  IC50: > 100000 nM

## COc1ccc(-c2sc3nc(-c4ccc(F)cc4)c(/C=C/C(=O)c4ccccn4)n3c2-c2ccc(OC)cc2)cc1
A549 [6]
  IC50: 640 nM
Tubulin
  IC50: 2350 nM
A549 [7]
  Activity: 64.14%
A549 [8]
  Activity: 69.07%

## O=C(Cc1csc2nc(-c3ccc(Cl)cc3)cn12)N/N=C/c1ccccc1O
SR [9]
  Activity: 11.51%
HL-60(TB)
  Activity: 103.5%
DU-145
  Activity: 108.65%
OVCAR-3
  GI50: 363 nM
CCRF-CEM
  GI50: 741 nM
NCI-H322M
  GI50: 1550 nM
NCI-H460
  GI50: 1380 nM
HCT-15
  GI50: 468 nM
SF-268
  GI50: 1260 nM
CAKI-1
  GI50: 776 nM
UO-31
  GI50: 501 nM
MDA-MB-231 [10]
  GI50: 1580 nM
SR [11]
  GI50: 603 nM

## O=C(Cc1csc2nc3ccccc3n12)Nc1cccc2ccccc12
HeLa [4]
  IC50: 2490 nM
HepG2 [5]
  IC50: > 100000 nM
L02
  IC50: > 100000 nM
HUVEC
  IC50: > 100000 nM

## C/C(=N\N=C1\S/C(=N\Nc2ccc(Br)cc2)C(=O)N1N)c1sc2nc(-c3ccc(C)cc3)cn2c1C
HCT-116
  IC50: 1100 nM

## COc1ccc2c(c1OCc1csc3nc(-c4cc(C)c(Br)s4)cn13)C(=O)OC2C1c2c(cc3c(c2OC)OCO3)CCN1C (stereo not drawn)
MIA PaCa-2
  IC50: 3600 nM

## O=C1NC(=S)NC(=O)C1=Cc1c(-c2ccc(Cl)cc2)nc2scc(-c3cc4ccccc4oc3=O)n12
MCF7 [12]
  IC50: 17000 nM
HepG2 [13]
  IC50: 13900 nM
HeLa [14]
  IC50: 5180 nM

## COc1ccc(C(=O)/C=C/c2cn3c(n2)sc2ccccc23)cc1
MDA-MB-231 [15]
  IC50: 1200 nM

## COc1cc(C(=O)N/N=C/c2c(-c3ccc(F)cc3)nc3sccn23)cc(OC)c1OC
MDA-MB-231 [16]
  Activity: 75.8%

## O=C1Nc2ccccc2/C1=C\c1c(-c2ccc(Br)cc2)nc2scc(-c3cc4ccccc4oc3=O)n12
MCF7 [12]
  IC50: 10800 nM
HeLa [14]
  IC50: 6770 nM

## COc1cccc2c1C(=O)c1c(O)c3c(c(O)c1C2=O)C[C@@](O)(C(=O)CO)C[C@@H]3O[C@H]1C[C@H](N)[C@H](O)[C@H](C)O1 [DOXORUBICIN]
MDA-MB-231 [15]
  IC50: 1800 nM
